SMILES strings stand for the structures. Values after ≈ are worked out from the molar mass of the structure shown.

In one data set the test system is WI-38. Kind of data set: Antiproliferative activity against human WI-38 cells measured after 48 hrs by MTT assay. In kind it is functional, cell-based. The settings on record: WI-38, 48 h. In general terms: Tetrazolium assays rely on reduction of a dye to a coloured formazan, in cell work by metabolically active cells.
Another data set deals with A549. Kind of data set: cells. To be noted: Homo sapiens, A549, 48 h.
Data set [1] can be described thus: Selectivity index, ratio IC50 for antiproliferative activity against human WI-38 cells over IC50 for antiproliferative activity against human A549 cells. The class given is toxicity, cell-based. The settings on record: WI-38 cells and A549 cells, read-out: Ratio IC50.
Data set [2] can be described thus: Acute toxicity in female ICR mouse assessed as pathological changes in intestine at 6.25 to 50 mg/kg measured by H and E staining method. In kind it is organism-based. To be noted: in vivo, dose 6.25-50 mg/kg.
The nature of data set [3]: Acute toxicity in female ICR mouse assessed as pathological changes in liver at 6.25 to 50 mg/kg measured by H and E staining method. In kind it is organism-based. To be noted: in vivo, dose 6.25-50 mg/kg.
The nature of data set [4]: Acute toxicity in female ICR mouse assessed as changes in creatine kinase (CK) level in heart at 6.25 to 50 mg/kg. In kind it is organism-based. To be noted: in vivo, dose 6.25-50 mg/kg.
Data set [5] is described as follows: Acute toxicity in female ICR mouse assessed as pathological changes in heart at 6.25 to 50 mg/kg measured by H and E staining method. In kind it is organism-based. To be noted: in vivo, dose 6.25-50 mg/kg.
A further data set concerns HCT-116. Kind of data set: Antiproliferative activity against human HCT-116 cells measured after 48 hrs by MTT assay. The class given is functional, cell-based. To be noted: HCT-116, 48 h.
The test system of a further data set is SK-OV-3. The data set can be described thus: Antiproliferative activity against human SK-OV-3 cells measured after 48 hrs by MTT assay. In kind it is functional, cell-based. The settings on record: SK-OV-3, 48 h.
A further data set relates to Huh-7. Kind of data set: Antiproliferative activity against human Huh-7 cells measured after 48 hrs by MTT assay. To be noted: Huh-7, 48 h. In kind it is functional, cell-based.
The next data set deals with SK-BR-3. Kind of data set: Antiproliferative activity against human SK-BR-3 cells measured after 48 hrs by MTT assay. In kind it is functional, cell-based. To be noted: SK-BR-3, 48 h.
Data set [6] can be described thus: Acute toxicity in female ICR mouse assessed as changes in AST level in liver at 6.25 to 50 mg/kg. The class given is organism-based. The settings on record: in vivo, dose 6.25-50 mg/kg.
A short description of data set [7]: Acute toxicity in female ICR mouse assessed as pathological changes in lung at 6.25 to 50 mg/kg measured by H and E staining method. The class given is organism-based. The settings on record: in vivo, dose 6.25-50 mg/kg.
The subject of another data set is Calu-1. The data set can be described thus: Antiproliferative activity against human Calu-1 cells measured after 48 hrs by MTT assay. The settings on record: Calu-1, 48 h. The class given is functional, cell-based.
The test system of data set [8] is PC-9. The data set can be described thus: Antiproliferative activity against human PC-9 cells measured after 48 hrs by MTT assay. The settings on record: PC-9, 48 h. In kind it is functional, cell-based.
A further data set concerns HeLa. Kind of data set: Antiproliferative activity against human HeLa cells measured after 48 hrs by MTT assay. The class given is functional, cell-based.
Data set [9] in a line: Acute toxicity in female ICR mouse assessed as changes in ALT level in liver at 6.25 to 50 mg/kg. In kind it is organism-based. To be noted: in vivo, dose 6.25-50 mg/kg.
For the next data set, the system named is NCI-H460. Kind of data set: Antiproliferative activity against human NCI-H460 cells measured after 48 hrs by MTT assay. The class given is functional, cell-based. The settings on record: NCI-H460, 48 h.
A short description of data set [10]: Acute toxicity in female ICR mouse assessed as pathological changes in kidney at 6.25 to 50 mg/kg measured by H and E staining method. The class given is organism-based. To be noted: in vivo, dose 6.25-50 mg/kg.
A further data set has as its system 786-0. The data set can be described thus: Antiproliferative activity against human 786-0 cells measured after 48 hrs by MTT assay. To be noted: 786-0, 48 h. In kind it is functional, cell-based.
The nature of data set [11]: Acute toxicity in female ICR mouse assessed as pathological changes in spleen at 6.25 to 50 mg/kg measured by H and E staining method. The settings on record: in vivo, dose 6.25-50 mg/kg. In kind it is organism-based.
Data set [12] has as its system PC-9. The data set can be described thus: Induction of apoptosis in human PC-9 cells assessed as total apoptotic cells at 10 ug/ml measured after 48 hrs by AnnexinV-FITC/PI staining based flow cytometry (reference value: 6.99%). The class given is functional. The settings on record: dose 10 µg/ml. A general note: A flow cytometer gives signals particle by particle.

The subject of data set [13] is PC-9. Kind of data set: Induction of apoptosis in human PC-9 cells assessed as total apoptotic cells at 3 ug/ml measured after 48 hrs by AnnexinV-FITC/PI staining based flow cytometry (reference value: 6.99%). In kind it is functional. The settings on record: dose 3 µg/ml.
For data set [14], the system named is PC-9. The data set can be described thus: Induction of apoptosis in human PC-9 cells assessed as total apoptotic cells at 100 ug/ml measured after 48 hrs by AnnexinV-FITC/PI staining based flow cytometry (reference value: 6.99%). The class given is functional. To be noted: dose 100 µg/ml.
The nature of data set [15]: Acute toxicity in female ICR mouse assessed as pathological changes in intestine at 25 mg/kg measured by H and E staining method. The class given is organism-based. To be noted: in vivo.
Data set [16] can be described thus: Acute toxicity in female ICR mouse assessed as pathological changes in spleen at 25 mg/kg measured by H and E staining method. To be noted: in vivo. In kind it is organism-based.
Data set [17] is described as follows: Acute toxicity in female ICR mouse assessed as changes in creatine kinase (CK) level in heart at 25 mg/kg. The class given is organism-based. To be noted: in vivo.
A short description of data set [18]: Acute toxicity in female ICR mouse assessed as changes in AST level in liver at 25 mg/kg. The class given is organism-based. The settings on record: in vivo.
A short description of data set [19]: Acute toxicity in female ICR mouse assessed as pathological changes in lung at 25 mg/kg measured by H and E staining method. In kind it is organism-based. The settings on record: in vivo.
The nature of data set [20]: Acute toxicity in female ICR mouse assessed as pathological changes in heart at 25 mg/kg measured by H and E staining method. The class given is organism-based. To be noted: in vivo.
A short description of data set [21]: Acute toxicity in female ICR mouse assessed as changes in ALT level in liver at 25 mg/kg. The class given is organism-based. To be noted: in vivo.
Data set [22] is described as follows: Acute toxicity in female ICR mouse assessed as pathological changes in kidney at 25 mg/kg measured by H and E staining method. The settings on record: in vivo. The class given is organism-based.
The nature of data set [23]: Acute toxicity in female ICR mouse assessed as pathological changes in liver at 25 mg/kg measured by H and E staining method. In kind it is organism-based. To be noted: in vivo.

For `O=C1c2cccc(O)c2C(=O)c2c(O)cc(C(=O)N3CCN(C(=S)SCc4ccc(C(F)(F)F)cc4)CC3)cc21`, the half-maximal inhibitory concentration (IC50) with WI-38 and in the data set on A549 was greater than 100 µg/mL in each case. The selectivity ratio in data set [1] was 1.
As to `COC(=O)CSC(=S)N1CCN(C(=O)c2cc(O)c3c(c2)C(=O)c2cccc(O)c2C3=O)CC1`, the values for the half-maximal inhibitory concentration (IC50) with WI-38 and with A549 were 67 µg/mL (≈ 134 µM) and 31 µg/mL (≈ 61.9 µM), respectively. Also, the selectivity ratio in data set [1] was determined as 2.
`O=C1c2cccc(O)c2C(=O)c2c(O)cc(C(=O)N3CCN(C(=S)SCCCOc4ccccc4)CC3)cc21`: the IC50 in the data set on WI-38 and in the data set on A549 was greater than 100 µg/mL each time. The selectivity ratio in [1] came out at 1.
Consider `O=C1c2cccc(O)c2C(=O)c2c(O)cc(C(=O)N3CCN(C(=S)SCc4ccccc4)CC3)cc21`, for which the 50% inhibitory concentration (IC50) in the data set on WI-38 is 48.8 µg/mL (≈ 94 µM); in the data set with A549 it was 78.6 µg/mL (≈ 152 µM). The selectivity ratio in [1] came out at 1.
The matching figures for `O=C1c2cccc(O)c2C(=O)c2c(O)cc(C(=O)N3CCN(C(=S)SCc4ccc(F)cc4)CC3)cc21`: greater than 100 µg/mL, 36.4 µg/mL (≈ 67.8 µM) and 3.
As for `CCOC(=O)CCCSC(=S)N1CCN(C(=O)c2cc(O)c3c(c2)C(=O)c2cccc(O)c2C3=O)CC1`, the Activity result in data set [2], in data set [3], in [4], in data set [5], in data set [6] and in data set [7] was “Non-Toxic” in each case. Also, the Activity result in [9] is listed as “Non-Toxic”; in [10], “Non-Toxic”; in data set [11] it was “Non-Toxic”; in the data set on PC-9 [12], 28.97%; in the data set on PC-9 [13], 13.22%; in the data set with PC-9 [14], 47.06%. In addition, the IC50 came out at 55.3 µg/mL (≈ 102 µM) in the data set on WI-38; 25.9 µg/mL (≈ 47.7 µM) in the data set on HCT-116; 35.5 µg/mL (≈ 65.4 µM) in the data set on SK-OV-3; 10.9 µg/mL (≈ 20.1 µM) in the data set with A549; 23.8 µg/mL (≈ 44 µM) in the data set on Huh-7; 52 µg/mL (≈ 95.8 µM) with SK-BR-3. In addition, the 50% inhibitory concentration (IC50) with Calu-1 was determined as 23.8 µg/mL (≈ 43.8 µM); in the data set on PC-9 [8], 10.8 µg/mL (≈ 19.9 µM); in the data set on HeLa, 30.6 µg/mL (≈ 56.4 µM); in the data set on NCI-H460, 23 µg/mL (≈ 42.4 µM); in the data set with 786-0, 30.1 µg/mL (≈ 55.6 µM). For the same compound, the selectivity ratio in data set [1] turned out to be 5.
Consider `Cc1ccc(CSC(=S)N2CCN(C(=O)c3cc(O)c4c(c3)C(=O)c3cccc(O)c3C4=O)CC2)cc1`, for which the IC50 with WI-38 and with A549 was greater than 100 µg/mL in each case. In data set [1], the selectivity ratio amounted to 1.
Consider `COc1cccc2c1C(=O)c1c(O)c3c(c(O)c1C2=O)C[C@@](O)(C(=O)CO)C[C@@H]3O[C@H]1C[C@H](N)[C@H](O)[C@H](C)O1` [DOXORUBICIN], for which the IC50 in the data set with WI-38 was 0.079 µg/mL (≈ 0.145 µM); in the data set on A549, 0.665 µg/mL (≈ 1.22 µM).
As to `O=C(CSC(=S)N1CCN(C(=O)c2cc(O)c3c(c2)C(=O)c2cccc(O)c2C3=O)CC1)OCc1ccccc1`, the results for the IC50 with WI-38 and in the data set with A549 were greater than 100 µg/mL and 29.8 µg/mL (≈ 51.7 µM), respectively. Besides, the selectivity ratio in data set [1] was 3.
The matching figures for `C=CCSC(=S)N1CCN(C(=O)c2cc(O)c3c(c2)C(=O)c2cccc(O)c2C3=O)CC1`: greater than 100 µg/mL, 40.5 µg/mL (≈ 86.5 µM) and 3.
Take `O=C(O)c1cc(O)c2c(c1)C(=O)c1cccc(O)c1C2=O` [RHEIN]: the Activity entry in data set [15], in [16], in [17], in data set [18], in [19] and in data set [20] was “Non-Toxic” in each case. The Activity result in [21], in data set [22] and in data set [23] was “Non-Toxic” each time. The IC50 turned out to be 92.3 µg/mL (≈ 325 µM) in the data set with WI-38 and 77.1 µg/mL (≈ 271 µM) in the data set with A549. Moreover, the selectivity ratio in data set [1] was 1.
For `O=C1c2cccc(O)c2C(=O)c2c(O)cc(C(=O)N3CCN(C(=S)SCc4ccc(Cl)cc4)CC3)cc21`, the results for the IC50 with WI-38 and in the data set on A549 were 72.5 µg/mL (≈ 131 µM) and greater than 100 µg/mL, respectively.
As to `Nc1ccn([C@@H]2O[C@H](CO)[C@@H](O)[C@@H]2O)c(=O)n1` [CYTARABINE], the concentration for half-maximal inhibition (IC50) with WI-38 was greater than 100 µg/mL; in the data set with A549, 49.3 µg/mL (≈ 203 µM). Also, in data set [1], the selectivity ratio came out at 2.

What is called IC50 is the concentration needed to halve the response being measured.

These data come from ChEMBL document CHEMBL5108023, “Design, synthesis and biological evaluation of rhein-piperazine-dithiocarbamate hybrids as potential anticancer agents” (Eur J Med Chem, 2022).
